# Structures can show the parent of a compound that is named as a salt. Where two headings read alike, the source gives them in different places.
# Experiments:
# [1] = system: immortalized SMA fibroblasts; experiment: Distribution of the SMN protein to Cajal bodies (CBs) in immortalized SMA fibroblasts, immunolabeling, cells counted; format: cell-based, human; settings: for induction factor of cells with SMN protein in CBs (DMSO = 1): 24 hours of treatment at 2 micrograms/ml, immortalized SMA fibroblasts; for Maximum induction: at 2 μg/ml, DMSO = 1; for Maximum induction / Dilution at EC50: immortalized type I line; for Dilution at EC50: dilution relative to 2 μg/ml
# Procedure: This immortalization is described in the publication Lefebvre S, Burlet P, Viollet L, Bertrandy S, Huber C, Belser C and Munnich A. A novel association of the SMN protein with major non-ribosomal nucleolar proteins and its implication in spinal muscular atrophy. Hum Mol Genet (2002) 11 (9): 1017-1027.
# The blockers of the invention are commercially available (for example from Sigma-Aldrich) and are sold in 96-well plates, at 2 milligrams per molecule per well to be dissolved in 1 ml of DMSO.
# In order to determine whether the calcium channel blockers exerted a positive effect, the inventors counted the cells which had the SMN protein located in the CBs out of 100 cells randomly selected for each experiment.
# This experiment was repeated three times.
# A value of induction by a factor equal to 1 was arbitrarily assigned to DMSO.
# In order to evaluate the relationship between the concentration (dose) and the effect (response) on the CBs of the immortalized SMA cells, the inventors constructed a dose-response curve for each of the molecules.
# immortalized SMA cells = experiment: Co-immunolabeling of coilin and TMG cap: snRNPs at the level of CBs in immortalized SMA cells; format: cell-based, human; settings: 24 hours of treatment; chi-2, 0.001<p<0.01; n=300 cells
# Procedure: Co-immunolabeling experiments similar to the previous ones were carried out on the immortalized SMA cells using two commercial antibodies, one specific for the coilin protein (CBs marker) and the other for the trimethylguanosine (TMG) cap of the small nuclear RNAs of snRNPs.
# These tests show an increase in the SMN protein and in the snRNPs in Cajal bodies in the immortalized SMA line from the severe form of the disease (type I), induced by the calcium channel blockers of the invention. The mean value for the snRNPs is calculated from the three experiments (n=300 cells).
# [2] = humans, cited from earlier work; for maximum plasma level: oral, 10 mg per day
# [3] = system: amyotrophic lateral sclerosis; settings: ALS patients; cited from earlier work
SMILES,induction factor of cells with SMN protein in CBs (DMSO = 1) [1],Maximum induction [1],Dilution at EC50 [1],other results
"CCCCc1oc2ccccc2c1C(=O)c1cc(I)c(OCCN(CC)CC)c(I)c1 [Amiodarone hydrochloride, (2-butyl-3-benzofuranyl)[4-[2-(diethylamino)ethoxy]-3,5-diiodophenyl]methanone hydrochloride]",approximately 2.8,2.8 ± 1.0,,
"Fc1ccc(C(c2ccc(F)cc2)N2CCN(C/C=C/c3ccccc3)CC2)cc1 [Flunarizine dihydrochloride, flunarizine dihydrochloride]",approximately 4.8,4.8 ± 1.5,1/53,"snRNPs at the level of the CBs (immortalized SMA cells): significant increase; maximum plasma level [2]: approximately 81±16 nanograms/ml; maximum plasma level ([2]; converted from ng/ml): approximately 170±34 nM; elimination half-life [2]: long; induction factor of SMN protein distribution to CBs (DMSO = 1) ([1]; compounds diluted to 1/1000 compared with examples 1 and 2, FIG. 1): 1.2"
"NCC1(CC(=O)O)CCCCC1 [Gabapentin, 2-[1-(aminomethyl)cyclohexyl]acetic acid]",approximately 3.3,4.4 ± 1.0,1/55,"EC50 ([1]; Homo sapiens, Fibroblast): 210 ± 38 nM"
Nc1nc2ccc(OC(F)(F)F)cc2s1 [Riluzole],,,,improvement of patient prognosis [3]: 30%
CC(C)C[C@H](CN)CC(=O)O [pregabalin],1.7,,,

# Source: patent US20150238483A1, “Traitement des neuronopathies motrices” (CENTRE NATIONAL DE LA RECHERCHE SCIENTIFIQUE- CNRS, priority 2012, published 2015)
